Data reported in patent US20110028503A1, “COMPOSITIONS AND METHODS FOR INHIBITION OF THE JAK PATHWAY” (RIGEL PHARMACEUTICALS, INC., priority 2009, published 2011).

How the values were obtained:
Type in all cases: cell-based
[1] = test system: U937 human monocytic cells stimulated with IFNγ (ICAM-1 up-regulation, JAK/Stat pathway); test: U937 IFNγ ICAM1 FACS assay; details: U-937, IFNγ 10 ng/mL, 18-24 hours, ICAM-1 FACS, read-out: Example 6 IC50 (U937 IFNγ ICAM1 FACS assay)
Procedure: U937 human monocytic cells up-regulate ICAM-1 (CD54) surface expression in response to a variety of different stimuli. Therefore, using ICAM-1 expression as readout, compound effects on different signaling pathways can be assessed in the same cell type. IFNγ up-regulates ICAM-1 through activation of the JAK/Stat pathway. In this example, the up-regulation of ICAM-1 by IFNγ was assessed.
U937 cells were grown in 10% RPMI. The cells were then plated at a concentration of 100,000 cells per 160 μL in 96 well flat bottom plates. […] Then 4 μL of test compound was transferred to 76 μL of 10% RPMI resulting in a 10× solution (100 μM test compound, 5% DMSO). For control wells, 4 μL of DMSO was diluted into 76 μL 10% RPMI.
The assay was performed in duplicate with 8 points (8 3-fold dilution concentrations from […]) and with 4 wells of DMSO only (control wells) under stimulated conditions and 4 wells of DMSO only under unstimulated conditions.
The diluted compound plate was mixed 2× using a multimek (Beckman Coulter of Brea, Calif.) and then 20 μL of the diluted compounds was transferred to the 96 well plate containing 160 μL of cells, which were then mixed again twice at low speeds. The cells and compounds were then pre-incubated for 30 minutes at 37° C. with 5% CO2. […]
Both % live cells and ICAM-1 expression was analyzed. […]

[2] = test system: human Ramos B cells stimulated with human IL-4 (JAK1 and JAK3 kinases, CD23 upregulation); test: Ramos B-cell line stimulated with IL-4 (CD23 upregulation, FACS); details: IL-4 50 units/mL, 20-24 hours, anti-CD23-PE FACS, read-out: Example 3 IC50 (Ramos B-cell line stimulated with IL-4, CD23)
Procedure: One means of assaying for JAK inhibition is detection of the effect of compounds I and II on the upregulation of downstream gene products. In the Ramos/IL4 assay, B-cells are stimulated with the cytokine Interleukin-4 (IL-4) leading to the activation of the JAK/Stat pathway through phosphorylation of the JAK family kinases, JAK1 and JAK3, which in turn phosphorylate and activate the transcription factor Stat-6. […] Twenty to 24 hours post stimulation, cells are stained for upregulation of CD23 and analyzed using flow cytometry (FACS). […] An exemplary assay of this type is described in greater detail below. B-cells stimulated with cytokine Interleukin-4 (IL-4) activate the JAK/Stat pathway through phosphorylation of the JAK family kinases, JAK-1 and JAK-3, which in turn phosphorylate and activate the transcription factor Stat-6. […] To study the effect of inhibitors on the JAK family kinases, human Ramos B cells are stimulated with human IL-4. The Ramos B-cell line was acquired from [NT] No. CRL-1596). The cells were cultured in RPMI 1640 (Cellgro, MediaTech, Inc., Herndon, Va., Cat No. 10-040-CM) with 10% fetal bovine serum (FBS), heat inactivated (JRH Biosciences, Inc, Lenexa, Kans., Cat No. 12106-500M) according to ATCC propagation protocol. […] Cells were then spun down and stained with anti-CD23-PE(BD Pharmingen, San Diego, Calif., Cat No. 555711) and analyzed by FACS. […]

[3] = test system: primary human T-cells (IL-2 stimulated proliferation; JAK1 and JAK3); test: Primary human T-cell proliferation assay stimulated with IL-2; details: IL-2, 72 hours, CellTiter-Glo ATP readout, read-out: Example 4 IC50 (primary human T-cell proliferation stimulated with IL-2)
Text: In this assay, primary human T-cells derived from peripheral blood and pre-activated through stimulation of the T-cell receptor and CD28, proliferate in culture in response to the cytokine Interleukin-2 (IL-2). This proliferative response is dependent on the activation of JAK1 and JAK3 tyrosine kinases, which phosphorylate and activate the transcription factor Stat-5. […] A reduction in cell proliferation compared to control conditions is indicative of inhibition of the JAK kinase pathway. An exemplary assay of this type is described in greater detail below.
Primary human T-cells derived from peripheral blood and pre-activated through stimulation of the T-cell receptor and CD28, proliferate in vitro in response to the cytokine Interleukin-2 (IL-2). This proliferative response is dependent on the activation of JAK-1 and JAK-3 tyrosine kinases, which phosphorylate and activate the transcription factor Stat-5.
Human primary T cells were prepared as follows. […] The lymphocytes at the serum: ficoll interface were recovered and washed twice with 5 volumes of PBS. […]
Proliferation was measured using CellTiter-Glo® Luminescent Cell Viability Assay (Promega), which determines the number of viable cells in culture based on quantitation of the ATP present, as an indicator of metabolically active cells. […]

C#CCOc1ccc(Nc2nc(Nc3ccc(C)c(S(N)(=O)=O)c3)ncc2F)cc1 [Compound I, N2-(3-Aminosulfonyl-4-methylphenyl)-5-fluoro-N4-[4-(prop-2-ynyloxy)phenyl]-2,4-pyrimidinediamine]
IC50 [1]: 565 nM | IC50 [2]: 56 nM | IC50 [3]: 181 nM
